Legend:
[1] = mouse model of tibia bone fracture (96); cited from earlier work
AXL receptors = conditions: osteoporosis mouse model (97); cited from earlier work
mouse cornea [2] = conditions: topical eye drops, 3× daily for 96 hours; 2005 (76); cited from earlier work
[3] = Incorporation of DHA into PC and PE after topical DHA to corneas with damaged stromal nerves; format: in vivo; conditions: 1 h, injured mouse corneas
Experimental: Proportion of PC and PE containing oleic acid (18:1) in the sn-1 and DHA in the sn-2 position. PE was more enriched in the DHA than PC. […] Corneal lipid profiles were analyzed by mass spectrometry-based lipidomic analysis.

rabbit cornea = conditions: cited from earlier work
injured corneas = conditions: NPD1 added to injured corneas (27); cited from earlier work
mouse cornea [4] = conditions: subconjunctival injection every 48 hours, 14 days; 2009 (77); cited from earlier work
corneal nerves [5] = conditions: daily i.p. injections of 1 ng/g body weight for 8 weeks; 2017 (79); cited from earlier work
mouse cornea [6] = assay: Corneal wound healing 20 h after injury (methylene blue stained wounded area); format: in vivo; conditions: 20 h after injury and topical treatment; compared to vehicle
Experimental: Studies have shown that PEDF+DHA promotes corneal wound healing in rabbit (20, 21), and in normal and diabetic mice (24, 25) after experimental surgery. We validated the ability of RvD6s (either RvD6 or RvD6si) in stimulating corneal wound healing. The right mouse eyes were injured, and the animals were divided into four groups: vehicle, PEDF+DHA, RvD6, and RvD6si (FIG. 4).
(§1) Mice were anesthetized with a mix of ketamine (200 mg/kg) and xylazine (10 mg/kg) injected intraperitoneally, and one drop of proparacaine hydrochloride solution (0.5%) was applied to the right eye subjected to injury. As previously described (19, 29), the center of the cornea was demarcated with a 2 mm trephine, and the epithelium and the anterior stroma were gently removed under a surgical microscope using a corneal rust ring remover (Algerbrush II; Alger Equipment Co., Lago Vista, TX, USA). One drop of 0.3% of tobramycin ophthalmic solution (Henry Schein, Melville, NY, USA) was applied to the eye to prevent postoperative infection. The same investigator (J.H.) performed all surgeries. Afterward, 10 μl of PEDF (50 ng/ml) plus DHA (50 nM) or DHA-derived lipid mediators were applied topically, as explained in each experimental design.
Mice were euthanized 20 h after injury and treatment, and corneas were stained with 0.5% methylene blue for 20 sec and then washed with PBS for 2 min. Photographs were taken with a dissecting microscope (SMZ 1500; Nikon, Tokyo, Japan) through an attached digital camera (DXM 1200; Nikon). The images corresponding to the wounded area were quantified using Photoshop CC 2014 software (Adobe, San Jose, CA, USA).

mouse cornea [7] = assay: Corneal sensitivity measurement (Belmonte non-contact aesthesiometer); format: in vivo; conditions: day 9 after injury and treatment; vs vehicle
Experimental: Corneal sensitivity was evaluated at days 3, 6, 9 and 12 after corneal injury and treatment (FIG. 4). A new methodology to measure the sensation in mouse cornea was introduced using the Belmonte non-contact aesthesiometer. […] It is important to note that this range of normal corneal sensitivity is critical to evaluate corneal sensation since the Belmonte non-contact aesthesiometer working flow rate is from 20 to 200 ml/min. The range of normal corneal sensitivity from […] in the mouse was regarded as successful recovery after injury and treatment, and it was used to normalize the measurements.
as §1
The non-contact corneal aesthesiometer has been described as a more reliable method than the standard Cochet-Bonnet aesthesiometer to determine the corneal sensation threshold (54). Therefore, for corneal sensation measurement, the Belmonte non-contact corneal aesthesiometer (55) was used with some modification. Briefly, one researcher held the mouse and kept the air output needle at a distance of 3 mm from the cornea. Another researcher controlled the air flow rate. The measurements started at an air flow rate of 80 ml per minute and then increased gradually by ten units until the mouse started blinking. When the mouse blinked, the air flow rate was recorded as the final corneal sensitivity index.

corneal nerves [8] = assay: Corneal nerve analysis (PGP9.5 and SP whole-mount nerve density); format: in vivo, mouse
Excerpt: PEDF+DHA stimulates corneal nerve regeneration in injury animal models (20-25). It was important to confirm the biological activity of RvD6si as a lipid mediator underlying the action of PEDF+DHA. To validate this, mice were injured and treated (as described in FIG. 4). Isolated corneas were stained with PGP 9.5, a pan-neuronal marker, and with SP neuropeptide antibodies. The density of non-injured corneal nerves positive to PGP 9.5 and SP, respectively, was used to normalize the values (FIG. 5). Substance P is a main neuropeptide in mammalian corneas (26-28).
as §1
Twelve days after injury and treatment, mice were euthanized, and the eyes enucleated and fixed with Zamboni's fixative (American Master Tech Scientific, Lodi, CA, USA) for 45 min at room temperature. The corneas were then excised and fixed for an additional 15 min, followed by 3 washes with PBS. To block nonspecific binding, corneas were incubated with 10% normal goat serum plus 0.5% Triton X-100 in PBS for 1 h at room temperature. Afterward, corneas were incubated with the primary antibodies, rabbit monoclonal anti-PGP9.5 (1:500), (ab108986; Abcam, Cambridge, MA, USA), and rat monoclonal anti-substance-P (SP; 1:100) (sc-21715; Santa Cruz Biotechnology, Dallas, TX, USA) for 24 h at room temperature with constant shaking. After being washed with PBS, the corneas were incubated with the corresponding secondary antibodies goat anti-rabbit Alexa-Fluor 488 (1:1000) and goat anti-rat Alexa-Fluor 488 (1:1000) (Thermo Fisher Scientific, Waltham, MA, USA) for 24 h at 4° C. Four radial cuts were performed on each cornea that was flatly mounted on a slide with the endothelium side up and examined with a fluorescent microscope (Deconvolution microscope DP80; Olympus, Tokyo, Japan). The images were merged together to build the entire view of the corneal nerve network. The corneal nerve density was measured using Photoshop CC 2014 (Adobe) as previously described (26, 29).

[9] = test system: trigeminal ganglion (TG) gene expression; assay: Trigeminal ganglion RNA sequencing after corneal injury and treatment; format: in vivo, mouse; conditions: RNA-seq, 12 days after corneal injury and topical treatment; vs vehicle
Experimental: Because corneal sensory nerves originate in TG neurons, we wanted to validate whether corneal injury could be sensed in the TG and t, in turn, would elicit a gene expression response. Thus, TG were harvested 12 days after injury and treatment with RvD6si or RvD6 or vehicle treatment used as control (FIG. 4) and then RNA-seq analysis was performed. […] The box plots depict two activated genes by RvD6si in this class: C9orf72 and Gpm6a (FIG. 6). We also detected specific genes related to neuropeptides and ion channel receptors in the cornea that are stimulated by the addition of PEDF+DHA (19, 21, 24) (FIG. 6D). The RNA-seq established that RvD6 or RvD6si reduced gene expression of two major neuropeptides, tachykinin precursor 1 (Tac1) that encodes Substance P (SP) and calcitonin-related polypeptide beta (Calcb). It is important to note that these neuropeptides, especially Calcb, are major pain-induced mediators in migraine and other primary headaches (30).
TG corresponding to the injury eye side (n=5) were harvested and kept in RNAlater solution (Thermo Fisher Scientific) until homogenized on ice using a Dounce homogenizer. Total mRNA was extracted using an RNeasy mini kit (Qiagen, Germantown, MD, USA) as described by the manufacturer. Purity and concentration of RNA were determined with a NanoDrop ND-1000 spectrophotometer (Thermo Fisher Scientific), and the samples were stored at −80° C. until used. RNA sequencing was performed using the adapted Smart-seq2 protocol (56). Briefly, one ng of total RNA was reverse transcribed with the Oligo-dT30VN and template-switching oligo (TSO) primers. The total cDNAs were amplified using ISPCR primer, and the library was made using the Nextera XT DNA library preparation kit (Illumina, San Diego, CA, USA). The libraries were pooled using the same molarity and sequenced using the NextSeq 500/550 High Output Kit v2 (75 cycles, Illumina). After demultiplexing, RNA-seq data were aligned to the GENCODE GRCm38 mouse primary genome assembly (Release M22, gencodegenes.org/mouse/) using the RSubread package v1.34.6 for R v3.6.1 (57). The outputted BAM files for sequencing data alignment were counted using featureCounts function (Subread v1.6.5 in Ubuntu LTS 16.4 operating system) (58). Next, the raw count data were subjected to differential gene expression analysis using DESeq2 package for R (59). The adjusted p-values were regarded as the false discover rate (FDR).

[10] = topical NGF (95); cited from earlier work
[11] = test system: retinal pigment epithelial (RPE) cells; conditions: RPE cells (16); cited from earlier work

Molecule: CC/C=C\C[C@H](O)/C=C\C=C\C/C=C/C=C/C=C/C(O)[C@@H](O)CCC(=O)O (stereo in doubt) [RvD4, Resolvin D4]
- pain [1]: no effect

Molecule: CC/C=C\C[C@@H](O)/C=C/C=C/C/C=C\C/C=C\C/C=C\CCC(=O)O [17R-hydroxy DHA]
- pain behavior (AXL receptors): decrease pain behavior

Molecule: CC/C=C\C[C@H](O)/C=C/C=C\C/C=C\C/C=C\C/C=C\CCC(=O)O [17S-HDHA]
- PMNs in the cornea (mouse cornea [2]): Increased
- formation of the proinflammatory chemokine KC (mouse cornea [2]): Decreased
- rate of re-epithelialization (mouse cornea [2]): Increased the rate of re-epithelialization

Molecule: CC/C=C\C/C=C\C/C=C\C/C=C\C/C=C\C/C=C\CCC(=O)O [DHA, docosahexaenoic acid]
- incorporation of the fatty acid in PC and PE molecular species containing 18:1-DHA [3]: rapid incorporation

Molecule: CC/C=C\C[C@H](O)\C=C/C=C/C=C/[C@H](O)C/C=C\C/C=C\CCC(=O)O [NPD1, neuroprotectin D1]
- PMNs in the cornea (mouse cornea [2]): Increased
- formation of the proinflammatory chemokine KC (mouse cornea [2]): Decreased
- rate of re-epithelialization (mouse cornea [2]): Increased the rate of re-epithelialization
- neutrophil infiltration (rabbit cornea; after 2 and 4 days of treatment, 2013 (41)): Decreased neutrophil infiltration after 2 and 4
- subepithelial corneal nerves and tear secretion (rabbit cornea; topical eye drops 33 ng/eye, 3× daily for 6 weeks, 2013 (41)): Increased subepithelial corneal nerves and tear
- gene expression and protein levels of NGF, BDNF and Sema7A (injured corneas): increase

Molecule: CC/C=C\C[C@H](O)/C=C/C=C\C=C\C=C\[C@@H](O)[C@@H](O)C/C=C\CCC(=O)O [RvD1, Resolvin D1]
- mRNA expression levels of TNF-α, IL-1α, IL-1β, VEGF-A, VEGF-C, and VEGFR2 (mouse cornea [4]): macrophages and reduced mRNA expression
- suture-induced or IL-1β-induced hemangiogenesis (HA) (mouse cornea [4]): Suppressed suture-induced or IL-1β-induced
- diabetes-induced corneal nerve lost (corneal nerves [5]): Reduced the diabetes-induced comeal nerve
- pain [1]: pain attenuation

Molecule: CC/C=C\C[C@H](O)/C=C/C=C\C=C\C=C\[C@@H](O)[C@@H](O)C/C=C\CCC(=O)OC [RvD1-methyl ester]
- diabetes-induced corneal nerve lost (corneal nerves [5]): Reduced the diabetes-induced comeal nerve

Molecule: CC/C=C\C[C@H](O)[C@H](O)/C=C/C=C/C=C\C=C\[C@@H](O)C/C=C\CCC(=O)OC [RvD2-methyl ester]
- diabetes-induced corneal nerve lost (corneal nerves [5]): Reduced the diabetes-induced comeal nerve

Molecule: CC/C=C\C[C@H](O)/C=C/C=C\C[C@@H](O)/C=C/C=C/C=C\[C@@H](O)CCC(=O)O [RvD3, Resolvin D3]
- pain [1]: no effect

Molecule: CC/C=C\C[C@H](O)/C=C/C=C\C/C=C\C=C\[C@@H](O)C/C=C\CCC(=O)O [RvD5, Resolvin D5]
- pain [1]: pain attenuation

Molecule: CC/C=C\C[C@H](O)/C=C/C=C\C/C=C\C/C=C\C=C\[C@@H](O)CCC(=O)O [RvD6, 4S,17S-dihydroxy-5E,7Z,10Z,13Z,15E,19Z-docosahexaenoic acid, reference compound]
- corneal wound healing (wound closure) (mouse cornea [6]): faster
- corneal sensitivity (mouse cornea [7]): higher
- total corneal nerve density, differences between RvD6si, RvD6, and PEDF+DHA (corneal nerves [8]; 12 days after injury and treatment): no significant differences
- total corneal nerve density (PGP 9.5) (corneal nerves [8]; 12 days after injury and treatment, % of the normal (uninjured) cornea): 59.7±11.2%
- density of SP-positive nerves (corneal nerves [8]; 12 days after injury, compared to the vehicle-treated group): higher
- Calcb gene expression in TG [9]: reduced
- Tac1 gene expression in TG [9]: reduced

Molecule: NGF: nerve growth factor
- side effect of topical treatment [10]: ocular pain

B1: PEDF: pigment epithelium-derived factor, a broad-acting neurotrophic and neuroprotective factor (protein, UniProt P36955 20-418, looked up)
Pigment epithelium-derived …: QNPASPPEEGSPDPDSTGALVEEEDPFFKVPVNKLAAAVSNFGYDLYRVRSSTSPTTNVLLSPLSVATALSALSLGAEQRTESIIHRALYYDLISSPDIHGTYKELLDTVTAPQKNLKSASRIVFEKKLRIKSSFVAPLEKSYGTRPRVLTGNPRLDLQEINNWVQAQMKGKLARSTKEIPDEISILLLGVAHFKGQWVTKFDSRKTSLEDFYLDEERTVRVPMMSDPKAVLRYGLDSDLSCKIAQLPLTGSMSIIFFLPLKVTQNLTLIEESLTSEFIHDIDRELKTVQAVLTVPKLKLSYEGEVTKSLQEMKLQSLFDSPDFSKITGKPIKLTQVEHRAGFEWNEDGAGTTPSPGLQPAHLTFPLDYHLNQPFIFVLRDTDTGALLFIGKILDPRGP
- cornea nerve regeneration (rabbit cornea; treatment with PEDF or DHA alone (19)): no increase
- potency in stimulating NPD1 synthesis relative to NGF [11]: 10 times

From patent publication US20260224521A1, “BIOMOLECULE FOR TREATMENT OF CORNEAL PATHOLOGIES” (Board of Supervisors of Louisiana State University and …, priority 2019, published 2026)
